Measured values: paper PMC11251039, “Harnessing cholesterol uptake of malaria parasites for therapeutic applications” (EMBO Molecular Medicine, 2024)
pIC50: −log10 of the molar value. Where “and” joins values, the source holds several entries; their conditions need not be identical. Equal entries are not always repeated. Where two headings read alike, the source gives them in different places.

Legend:
[1] = system: human embryonic kidney cells (HEK293); assay: Human embryonic kidney cell viability assay (MTT); assay type: cell-based; settings: for pIC50: 96 h, HEK293, read-out: IC50, human embryonic kidney cell inhibition (viability)
Method: HEK293 cell viability assays commenced with 5000 cells per well. 10 µg/mL cycloheximide was used as a no-growth control. Metabolic capacity (indicating viability) was measured in an absorbance microplate reader after incubation with 0.45 mg/mL methylthiazolyldiphenyl-tetrazolium bromide (MTT; Sigma M2128) for 2 h followed by crystal solubilisation in SDS. […]
Human Embryonic Kidney Cell Viability Assays:
Human Embryonic Kidney Cell (HEK293) culture:
The HEK293 cell line was maintained under routine culture conditions in DMEM containing 3.7 g/L NaHCO3 supplemented with 10% FBS, 200 μM glutamine, 100 units/mL penicillin, and 100 μg/mL streptomycin at 37 °C in a humidified 5% CO2 incubator.
Cells were detached from a flask using 0.25% Trypsin with 0.2 g/L EDTA (Sigma T4049) and washed with culture media containing no phenol red. Cells were incubated with a serial dilution of each compound, or media/DMSO alone. The protein synthesis inhibitor cycloheximide (Sigma 01810) at 10 µg/mL was used as a positive control to determine background absorbance. 5,000 cells were seeded in each well. After 96 hours, 0.45 mg/mL methylthiazolyldiphenyl-tetrazolium bromide (MTT; Sigma M2128) was added and incubated for a further two hours, before mixing 1.1:1 with 10% w/v sodium dodecyl sulfate (SDS) to solubilise crystals and freezing the plate at -18 °C to stop the assay. […]

[2] = system: asexual P. falciparum 3D7 wild-type parasites; assay: P. falciparum asexual growth inhibition assay (SYBR Safe DNA replication); assay type: cell-based, Plasmodium falciparum; set-up: Figure 5B dose-response source data (growth, replicate values): unit not given here; settings: for pIC50: 72 h, read-out: IC50, P. falciparum asexual growth inhibition; for Figure 5B dose-response source data (growth, replicate values): individual replicates
Method: P. falciparum asexual parasite assays commenced with ring-stage parasites at 1% parasitaemia and 1% haematocrit. 200 nM chloroquine (Sigma C6628) or artesunate (Sigma A3731) was used as a no-growth control. DNA replication (indicating growth) was measured at the specified time using SYBR Safe DNA Gel Stain (Invitrogen 33102) and a fluorescence microplate reader (Smilkstein et al, [2004]; Spry et al, [2013]). […]
Growth and Viability Inhibition Assays:
Plasmodium falciparum Growth Inhibition Assays:
P. falciparum parasites were maintained under routine culture conditions in red blood cells and RPMI 1640-Hepes with Glutamax, supplemented with 10 mM D-glucose, 480 μM hypoxanthine, 20 μg/mL gentamicin, 0.375% (w/v) AlbuMAXTM II (Thermo Fisher 11021029), and 2.5% v/v heat-inactivated human serum (17). Cultures were maintained at 37 °C […]
wildtype parasites except for the ring stage survival assay, as specified. Cultures were synchronised with 5% w/v D-sorbitol (18).
Growth inhibition was investigated according to methods described by Smilkstein et al. (19) with modifications by Spry et al. (20). Compounds or solvent controls (DMSO, ethanol, or ethyl acetate) were serially diluted 2-fold across flat-bottom 96-well plates. Culture media without compound was used as a negative control. 200 nM chloroquine (Sigma C6628) or artesunate (Sigma A3731) was used as a positive control to determine background fluorescence. The parasitaemia of a culture containing predominantly ring stage parasites was counted by Giemsa smear. The parasitaemia was adjusted to 1% by addition of fresh uRBCs and added to the plate at a final haematocrit of 1%, with 200 µL per well. The plates were incubated at 37 °C under humid microaerophilic conditions. After 24, 48, or 72 hours, the plates were transferred to a -18 °C freezer to stop the assay and lyse cells. Plates were thawed and lysate was mixed 1:1 with SYBR Safe DNA Gel Stain (Invitrogen 33102) (final concentration 1/10,000) diluted in lysis buffer (20 mM TRIS, 5 mM EDTA, 0.008% w/v Saponin, 0.08% w/v Triton-X 100, pH 7.5). Fluorescence was detected at 490 nm excitation/ 520 nm emission on a FLUOstar Optima fluorescence plate reader (BMG Labtech).

SMILES: CC(C)(C)OOC(C)(C)C [Di-tert-butyl peroxide, di-tert-butyl peroxide, reference compound]
- pIC50 [1]: < 4.00
- pIC50 [2]: < 4.60
- Figure 5B dose-response source data (growth, replicate values) ([2]; Concentration 0.039063 uM): 85.18 and 102.4 and 102.7
- Figure 5B dose-response source data (growth, replicate values) ([2]; Concentration 0.078125 uM): 74.12 and 92.74 and 101.2
- Figure 5B dose-response source data (growth, replicate values) ([2]; Concentration 0.15625 uM): 95.05 and 90.78 and 92.5 and 91.43 and 92.81 and 96.62 and 92.25 and 92.33 and 93.69
- Figure 5B dose-response source data (growth, replicate values) ([2]; Concentration 0.1953125 uM): 104.7 and 100.3 and 94.44
- Figure 5B dose-response source data (growth, replicate values) ([2]; Concentration 0.3125 uM): 87.88 and 89.77 and 89.55 and 85.58 and 96.69 and 99.28 and 97.57 and 87.06 and 96.72
- Figure 5B dose-response source data (growth, replicate values) ([2]; Concentration 0.390625 uM): 99.53 and 101.7 and 93.86
- Figure 5B dose-response source data (growth, replicate values) ([2]; Concentration 0.625 uM): 89.02 and 90.9 and 80.19 and 84.44 and 92.83 and 101.4 and 93.27 and 93.75 and 89.82
- Figure 5B dose-response source data (growth, replicate values) ([2]; Concentration 0.78125 uM): 99.16 and 101.8 and 97.31
- Figure 5B dose-response source data (growth, replicate values) ([2]; Concentration 1.25 uM): 89.1 and 88.53 and 87.02 and 94.06 and 87.75 and 98.34 and 95.66 and 89.13 and 92.05
- Figure 5B dose-response source data (growth, replicate values) ([2]; Concentration 1.5625 uM): 96.44 and 101 and 94.23
- Figure 5B dose-response source data (growth, replicate values) ([2]; Concentration 2.5 uM): 90.99 and 88.19 and 94.1 and 84.35 and 90.32 and 96.8 and 92.38 and 90.3 and 90.14
- Figure 5B dose-response source data (growth, replicate values) ([2]; Concentration 3.125 uM): 98.75 and 99.8 and 93.33
- Figure 5B dose-response source data (growth, replicate values) ([2]; Concentration 5 uM): 88.2 and 86.72 and 93.06 and 89.82 and 70.14 and 95.75 and 93.09 and 90.02 and 87.03
- Figure 5B dose-response source data (growth, replicate values) ([2]; Concentration 6.25 uM): 99.66 and 102.1 and 96.08
- Figure 5B dose-response source data (growth, replicate values) ([2]; Concentration 10 uM): 83.27 and 83.85 and 83.43 and 96.65 and 93.69 and 94.13 and 91.37 and 89.09 and 89.4
- Figure 5B dose-response source data (growth, replicate values) ([2]; Concentration 12.5 uM): 105.9 and 89.05 and 98.44
- Figure 5B dose-response source data (growth, replicate values) ([2]; Concentration 25 uM): 103.6 and 101.6 and 94.82

SMILES: CC(C)(C)OOCCO[C@H]1CC[C@H]2[C@@H]3CC=C4C[C@@H](O)CC[C@]4(C)[C@H]3CC[C@]12C [C-17-perox]
- Fold difference in IC50 HEK293 compared to P. falciparum ([1]; 96 h HEK293 vs 72 h P. falciparum): ~ 60 fold
- pIC50 ([1]; Homo sapiens): 4.50
- pIC50 [2]: 6.30
- pIC50 ([2]; Plasmodium falciparum, 3D7, 72 h): 6.32
